Toxic doses and inconclusive results are not listed. Rule as the data show it: active = T/C of 150% or more; inactive = T/C below 125%.
Test system: L1210 leukemia ip in BDF1 mice, survival T/C
Assay: NCI In Vivo Anticancer Drug Screen. Data for tumor model L1210 Leukemia (intraperitoneal) in B6D2F1 (BDF1) mice
Conditions: endpoint: mean survival time, higher = longer survival
Summary of the method: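 Mice bearing the transplanted tumor received compound or vehicle. Survival of the treated group was divided by that of the vehicle-treated control group to give the ratio.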

Measured: T/C

N#Cc1cccc(CS(=O)(=O)c2ccccc2)c1
inactive: dose: 100.0 mg/kg/injection, schedule: Q04DX002 (ip), vehicle: Klucel (hydroxypropylcellulose) (HPC) 104 % of control | dose: 200.0 mg/kg/injection, schedule: Q04DX002 (ip), vehicle: Klucel (hydroxypropylcellulose) (HPC) 96 % of control | dose: 400.0 mg/kg/injection, schedule: Q04DX002 (ip), vehicle: Klucel (hydroxypropylcellulose) (HPC) 89 % of control

O=C1NC(=O)C(c2cccs2)(c2cccs2)N1
inactive: dose: 25.0 mg/kg/injection, schedule: Q01DX009 (ip), vehicle: water 98 % of control | dose: 50.0 mg/kg/injection, schedule: Q01DX009 (ip), vehicle: water 102 % of control | dose: 100.0 mg/kg/injection, schedule: Q01DX009 (ip), vehicle: water 98 % of control | dose: 100.0 mg/kg/injection, schedule: Q04DX003 (ip), vehicle: water 106 % of control | dose: 200.0 mg/kg/injection, schedule: Q01DX009 (ip), vehicle: water 91 % of control | dose: 200.0 mg/kg/injection, schedule: Q04DX003 (ip), vehicle: water 112 % of control | dose: 300.0 mg/kg/injection, schedule: Q01DX009 (ip), vehicle: water 90 % of control

CCOC(=O)CNCc1cccnc1
inactive: dose: 100.0 mg/kg/injection, schedule: Q01DX009 (ip), vehicle: saline 97 % of control | dose: 100.0 mg/kg/injection, schedule: Q04DX003 (ip), vehicle: saline 95 % of control | dose: 200.0 mg/kg/injection, schedule: Q01DX009 (ip), vehicle: saline 94 % of control | dose: 200.0 mg/kg/injection, schedule: Q04DX003 (ip), vehicle: saline 87 % of control | dose: 400.0 mg/kg/injection, schedule: Q01DX009 (ip), vehicle: saline 95 % of control | dose: 400.0 mg/kg/injection, schedule: Q04DX003 (ip), vehicle: saline 102 % of control

C[Se](=O)O.[Pb]
inactive: dose: 3.13 mg/kg/injection, schedule: Q01DX001 (ip), vehicle: saline with Tween-80 98 % of control | dose: 6.25 mg/kg/injection, schedule: Q01DX001 (ip), vehicle: saline with Tween-80 98 % of control | dose: 12.5 mg/kg/injection, schedule: Q01DX001 (ip), vehicle: saline with Tween-80 88 % of control
